Assays:
[1] = system: Mus musculus; experiment: Antiinflammatory activity in CD1 mouse ear edema model assessed as reduction in phorbol myristate acetate-induced edema administered topically at right ear 1 hr before phorbol myristate acetate challenge and measured 6 to 24 hrs post dose; type: functional
[2] = system: Mus musculus; experiment: Toxicity in CD1 mouse model phorbol myristate acetate-induced ear edema model at 0.1 mg/ear administered topically at right ear 1 hr before phorbol myristate acetate challenge and measured 24 hrs post dose; type: organism-based; settings: in vivo, topical_or_ocular
[3] = system: Mus musculus; experiment: Antiinflammatory activity in CD1 mouse ear edema model assessed as reduction in phorbol myristate acetate-induced edema at 0.1 mg/ear administered topically at right ear 1 hr before phorbol myristate acetate challenge and measured 24 hrs post dose; type: functional

In the case of CC(=O)O[C@@H]1[C@@H](O[C@H]2CC[C@H](C)[C@@]3(C)C[C@@H](/C(C)=C/C=C/C(C)(C)O)CC[C@H]23)OC[C@@H](O)[C@H]1O, the “inhibition (INH)” value [1] is reported as 85%.

In the case of C=C1CC/C=C(\C)CC[C@H](/C(C)=C/C=C/C(C)(C)O)C[C@H]1O (relative stereo), the Activity [2] is reported as “Non-toxic”.

With C/C1=C\C[C@@H](/C(C)=C/C=C/C(C)(C)O)CC/C(C)=C/CC1 [EUNICOL] the “inhibition (INH)” value [3] was 0.1% and the Activity [2] was “Non-toxic”.

C=C[C@@]1(C)CC[C@H](/C(C)=C/C=C/C(C)(C)O)C[C@@H]1C(=C)C [FUSCOL] was tested, and the Activity [2] was “Non-toxic”.

In the case of C=C[C@@]1(C)CC[C@H](/C(C)=C/C=C/C(C)(C)O[C@@H]2OC[C@@H](O)[C@@H](O)[C@@H]2O)C[C@@H]1C(=C)C [FUSCOSIDE B], the “inhibition (INH)” value [1] is reported as 52%.
